Results reported in publication PMC11726183, “Design, synthesis, in vitro, and in silico studies of novel isatin-hybrid hydrazones as potential triple-negative breast cancer agents” (RSC Advances, 2025).
Like-named read-outs stand apart in the source and are kept apart here.

Key:
Format in all cases: cell-based, human
[1] = tested on: MDA-MB-231 breast cancer cell line; assay: MTT cytotoxicity assay on breast cancer cell line MDA-MB-231; settings: for IC50: read-out: IC50 values, breast cancer cell line MDA-MB-231; for % viability, breast cancer cell line MDA-MB-231: concentration for the value not given (6.5-50 μM tested)
Source text: (§1) Breast cancer cells MDA-MB-231 were used to investigate the synthesized compounds' anticancer properties. Because these cancer cells lack estrogen receptors (ER), progesterone receptors (PR), and human epidermal growth factor receptor 2 (HER2), they are also known as triple-negative breast cancer cells (TNBC).[44] These receptors are generally utilized as target proteins in cancer treatment and are often overexpressed in cancer cells. […] At the same time human normal breast epithelial cell line MCF-10A was kept as a control in the experiment to check out whether the cytotoxic effects of the compounds were selective for malignant cells in comparison to non-malignant cells. Variable concentrations (6.5 μM, 12.5 μM, 25 μM, and 50 μM) of the synthesized compounds 5–25 were used to investigate the prohibition of growth in the human breast cancer cell line MDA-MB-231 and the non-tumorigenic MCF-10. The MTT [3-(4,5-dimethylthiazol-2-yl)-2,5-diphenyltetrazolium bromide] assay was used to determine the reduction in cancer cell viability induced by cytotoxic agents. […] IBM SPSS Statistics 26 software was used for the analysis of dose–response and computation of IC50 values.
(§2) In vitro, cytotoxicity assay for the synthetic derivatives was determined by performing an MTT (yellow tetrazolium salt, 3-(4,5-dimethylthizol-2-yl)-2,5-diphenyl tetrazolium bromide) assay by using an aggressive breast cancer cell line MDA-MB-231.[51] Human breast normal cell line MCF-10A was kept as a control in the study.[52,53] Cells were cultured in DMEM augmented with 10% FBS and 1% antibiotics (100 U per mL penicillin). The cells were sowed in a 96-well plate at a 1.0 × 10^4 cells per well density and incubated for 24 h at 37 °C in 5% CO2. The medium was discarded, and both the cell lines were treated with different concentrations (6.5 μM, 12.5 μM, 25 μM, and 50 μM) of synthetic hydrazone derivatives.[54] After 48 h of incubation 20 μL of MTT solution (5 mg mL^−1) was pipetted into each well and incubated for another 4 h.[55] Later the medium was discarded, and the precipitate of formazan was dissolved in DMSO. The absorbance of the mixtures was calculated using a microplate reader at 570 nm. Triplicates were used for performing all experiments and the cytotoxicity was expressed as a percentage of cell viability compared to untreated control cells.[54]1 [drawing 22]

normal cell line MCF-10 = assay: MTT cytotoxicity assay on normal breast epithelial cell line MCF-10A (control); settings: for IC50: read-out: IC50 values, normal cell line MCF-10
Source text: as §1, §2

[2] = as above; settings: human, MTT, 48 h, concentration for the value not given (6.5-50 μM tested)
Source text: as §1, §2

[3] = Homo sapiens, MDA-MB-231, MTT, 48 h
[4] = Homo sapiens, MCF10, MTT, 48 h, unit from text (highest concentration 50 μM)
[5] = MCF-10A normal breast epithelial cells

Compound	IC50 ([1]; Homo sapiens, MDA-MB-231, 48 h) [µM]	% viability, breast cancer cell line MDA-MB-231 ([1]; MTT, 48 h) [%]	IC50 (normal cell line MCF-10; Homo sapiens, MCF10, 48 h) [µM]	viability at 48 h [2] [%]	IC50 [1, 3] [µM]	IC50 (normal cell line MCF-10; [4]) [µM]	viability at 48 h [2, 5] [%]	IC50 ([1]; MTT, 48 h) [µM]	% viability, normal cell line MCF-10 (normal cell line MCF-10; MTT, 48 h, concentration for the value not given (6.5-50 μM tested)) [%]	IC50 (normal cell line MCF-10; MTT, 48 h, unit from text (highest concentration 50 μM)) [µM]
O=C(N/N=C1/C(=O)N(Cc2ccccc2)c2ccccc21)c1cccc(Cl)c1 [Compound 5, (E)-N′-(1-Benzyl-2-oxoindolin-3-ylidene)-3-chlorobenzohydrazide]	26.4 ± 0.8	27.11	> 50	80.1	–	–	–	–	–	–
COc1ccc(C(=O)N/N=C2/C(=O)N(Cc3ccccc3)c3ccccc32)cc1 [Compound 6, (E)-N′-(1-Benzyl-2-oxoindolin-3-ylidene)-4-methoxybenzohydrazide]	25.8 ± 0.4	26.13	> 50	81.1	–	–	–	–	–	–
Cc1ccc(F)c(C(=O)N/N=C2/C(=O)N(Cc3ccccc3)c3ccccc32)c1 [Compound 7, (E)-N′-(1-Benzyl-2-oxoindolin-3-ylidene)-2-fluoro-5-methylbenzohydrazide]	33.6 ± 0.5	30.01	> 50	79.3	–	–	–	–	–	–
O=C(N/N=C1/C(=O)N(Cc2ccccc2)c2ccccc21)c1ccncc1 [Compound 8, (E)-N′-(1-Benzyl-2-oxoindolin-3-ylidene)isonicotinohydrazide]	16.8 ± 0.9	19.13	> 50	78.1	–	–	–	–	–	–
Cc1ccc(C(=O)N/N=C2/C(=O)N(Cc3ccccc3)c3ccccc32)cc1F [Compound 9, (E)-N′-(1-Benzyl-2-oxoindolin-3-ylidene)-3-fluoro-4-methylbenzohydrazide]	27.4 ± 0.5	25.61	> 50	76.2	–	–	–	–	–	–
O=C(Cc1ccccc1C(F)(F)F)N/N=C1/C(=O)N(Cc2ccccc2)c2ccccc21 [Compound 10, (E)-N′-(1-Benzyl-2-oxoindolin-3-ylidene)-2-(2-(trifluoromethyl)phenyl)acetohydrazide]	–	29.12	–	–	25.4 ± 0.8	> 50	84.9	–	–	–
O=C(N/N=C1/C(=O)N(Cc2ccccc2)c2ccccc21)c1ccccc1 [Compound 11, (E)-N′-(1-Benzyl-2-oxoindolin-3-ylidene)benzohydrazide]	28.4 ± 0.5	25.41	> 50	82	–	–	–	–	–	–
O=C(Cc1ccc(C(F)(F)F)cc1)N/N=C1/C(=O)N(Cc2ccccc2)c2ccccc21 [Compound 12, (E)-N′-(1-Benzyl-2-oxoindolin-3-ylidene)-2-(4-(trifluoromethyl)phenyl)acetohydrazide]	–	36.52	–	–	31.2 ± 0.9	> 50	80.4	–	–	–
O=C(N/N=C1/C(=O)N(Cc2ccccc2)c2ccccc21)c1cccc2ccccc12 [Compound 13, (E)-N′-(1-Benzyl-2-oxoindolin-3-ylidene)-1-naphthohydrazide]	28.6 ± 0.5	29.01	> 50	79.1	–	–	–	–	–	–
O=C(N/N=C1/C(=O)N(Cc2ccccc2)c2ccccc21)c1ccc(Br)cc1 [Compound 14, (E)-N′-(1-Benzyl-2-oxoindolin-3-ylidene)-4-bromobenzohydrazide]	36.8 ± 0.7	42.11	> 50	85.4	–	–	–	–	–	–
Cc1ccccc1C(=O)N/N=C1/C(=O)N(Cc2ccccc2)c2ccccc21 [Compound 15, (E)-N′-(1-Benzyl-2-oxoindolin-3-ylidene)-2-methylbenzohydrazide]	24.4 ± 0.6	23.77	> 50	84.3	–	–	–	–	–	–
O=C(N/N=C1/C(=O)N(Cc2ccccc2)c2ccccc21)c1ccco1 [Compound 16, (E)-N′-(1-Benzyl-2-oxoindolin-3-ylidene)furan-2-carbohydrazide]	29.2 ± 0.7	29.40	> 50	79.9	–	–	–	–	–	–
O=C(N/N=C1/C(=O)N(Cc2ccccc2)c2ccccc21)c1ccc(C(F)(F)F)cc1 [Compound 17, (E)-N′-(1-Benzyl-2-oxoindolin-3-ylidene)-4-(trifluoromethyl)benzohydrazide]	37.5 ± 0.9	38.09	> 50	77.6	–	–	–	–	–	–
O=C(N/N=C1\C(=O)N(Cc2ccccc2)c2ccccc21)c1cccnc1 [Compound 18, (Z)-N′-(1-Benzyl-2-oxoindolin-3-ylidene)nicotinohydrazide]	34.6 ± 0.4	41.19	> 50	85.1	–	–	–	–	–	–
O=C(Cc1ccccc1Nc1c(Cl)cccc1Cl)N/N=C1/C(=O)N(Cc2ccccc2)c2ccccc21 [Compound 19, (E)-N′-(1-Benzyl-2-oxoindolin-3-ylidene)-2-(2-((2,6-dichlorophenyl)amino)phenyl) acetohydrazide]	–	37.23	–	–	29.2 ± 0.4	> 50	80.3	–	–	–
O=C(N/N=C1/C(=O)N(Cc2ccccc2)c2ccccc21)c1ccccc1Cl [Compound 20, (E)-N′-(1-Benzyl-2-oxoindolin-3-ylidene)-2-chlorobenzohydrazide]	28.8 ± 0.6	34.56	> 50	77.6	–	–	–	–	–	–
O=C(Cc1ccc(F)cc1F)N/N=C1/C(=O)N(Cc2ccccc2)c2ccccc21 [Compound 21, (E)-N′-(1-Benzyl-2-oxoindolin-3-ylidene)-2-(2,4-difluorophenyl)acetohydrazide]	22.2 ± 0.7	22.46	> 50	85.7	–	–	–	–	–	–
O=C(N/N=C1/C(=O)N(Cc2ccccc2)c2ccccc21)c1ccccc1Br [Compound 22, (E)-N′-(1-Benzyl-2-oxoindolin-3-ylidene)-2-bromobenzohydrazide]	26.1 ± 0.7	21.28	> 50	78.4	–	–	–	–	–	–
O=C(Cc1ccccc1)N/N=C1/C(=O)N(Cc2ccccc2)c2ccccc21 [Compound 24, (E)-N′-(1-Benzyl-2-oxoindolin-3-ylidene)-2-phenylacetohydrazide]	–	29.54	–	–	24.5 ± 0.8	> 50	78.5	–	–	–
O=C(N/N=C1/C(=O)N(Cc2ccccc2)c2ccccc21)c1cc2ccccc2cc1O [Compound 25, (E)-N′-(1-Benzyl-2-oxoindolin-3-ylidene)-3-hydroxy-2-naphthohydrazide]	30.6 ± 0.4	31.67	> 50	76.3	–	–	–	–	–	–
(E)-1-Benzyl-3-((2-(4-nitrophenyl)-2-oxoethyl)imino)indolin-2-one [Compound 23]	–	17.37	–	–	–	–	–	15.8 ± 0.6	75.23	> 50
